Results reported in PubChem BioAssay AID489032 (Sanford-Burnham Center for Chemical Genomics, 2010).
The source made the active and inactive calls. No rule for the calls is given here.

Test system: UPR adaptive arm reporter cells, luciferase luminescence
Test: adaptive unfolded protein response reporter activation – cell-based, luciferase luminescence, dose response (AID 489032)

Question: How did the EC50 turn out when `CCCCN(CC)S(=O)(=O)c1ccc(C(=O)N(CCCN(C)C)c2nc3cc(C)cc(C)c3s2)cc1` was run?
Answer: Its EC50 is > 80 µM (inactive).

Question: For `Cc1ccc2c(=O)[nH]c(Nc3nc(C)cc(-c4ccccc4)n3)nc2c1`, which EC50 is on record?
Answer: The EC50 was > 80 µM (inactive).

Question: Which EC50 does the source give for `CCC(=O)Nc1ccc(-c2cc(-c3ccccc3)nc(-c3ccc(NC(=O)CC)cc3)n2)cc1` here?
Answer: The EC50 was > 80 µM (inactive).

Question: How did the EC50 turn out when `COc1ccc(-c2coc3cc4oc(=O)cc(-c5ccccc5)c4cc23)cc1F` was run?
Answer: Its EC50 is 43.3 µM (inactive).

Question: For `COc1cccc(-c2sc3ccccc3c2-c2ccc(OCCN(C)C)cc2)c1`, which EC50 is on record?
Answer: Its EC50 is > 80 µM (inactive).

Question: Which EC50 does the source give for `NS(=O)(=O)c1ccc(NC(=O)COC(=O)c2cn(-c3ccccc3)nc2-c2ccc(F)cc2)cc1` here?
Answer: Its EC50 is > 80 µM (inactive).

Question: Which EC50 does the source give for `COc1ccc(N=Cc2c(O)c3ccccc3oc2=O)cc1` here?
Answer: The EC50 was 12.2 µM.

Question: With `Cc1ccc(S(=O)(=O)Cc2cc(F)c([N+](=O)[O-])cc2[N+](=O)[O-])cc1` as the molecule, how does the EC50 read?
Answer: The EC50 was > 80 µM (inactive).

Question: How did the EC50 turn out when `Cc1cc(NC(=O)c2cc(-c3ccccn3)nc3ccc(Br)cc23)no1` was run?
Answer: The EC50 was > 80 µM (inactive).

Question: For `CN(/N=C\c1ccc(O)c(O)c1)c1nc(-c2ccccc2)cc(-c2ccccc2)n1`, which EC50 is on record?
Answer: The EC50 was 8.69 µM.

Question: `CCc1ccc(N2C(=O)NC(=O)/C(=C\c3cccn3CCOc3ccc(C(C)C)cc3)C2=O)cc1` was tested. Which EC50 did it give?
Answer: Its EC50 is > 80 µM (inactive).

Question: `Nc1nc(Nc2ccccc2)nc(NC2CCCCC2)c1[N+](=O)[O-]` was tested. Which EC50 did it give?
Answer: The EC50 was 29.2 µM (inactive).

Question: For `COc1ccc(C2c3ccc4ccccc4c3Oc3ncn(CCCN(C)C)c(=N)c32)cc1` (stereo not drawn), which EC50 is on record?
Answer: The EC50 was > 80 µM (inactive).

Question: How did the EC50 turn out when `CCCCNc1c(-c2ccc(-c3ccc(C(C)=O)cc3)c(OC)c2)nc2cc(C)ccn12` was run?
Answer: The EC50 was > 80 µM (inactive).

Question: `CCOc1ccc(NC(=S)NC(=O)/C=C/c2ccc(OC)c(OC)c2)c([N+](=O)[O-])c1` was tested. Which EC50 did it give?
Answer: The EC50 was > 80 µM (inactive).

Question: For `C/C(=N\Nc1ncnc2sc(C)c(C)c12)c1ccccn1`, which EC50 is on record?
Answer: The EC50 was > 80 µM (inactive).

Question: `Cc1ccc2c(c1)C(c1ccc([N+](=O)[O-])cc1)=NNC(c1ccc(Br)cc1)=N2` was tested. Which EC50 did it give?
Answer: Its EC50 is > 80 µM (inactive).

Question: `N/C(=N\c1nc(CSc2ccccn2)cc(=O)[nH]1)Nc1ccc(Cl)cc1Cl` was tested. Which EC50 did it give?
Answer: Its EC50 is > 80 µM (inactive).

Question: With `Cc1ccc(CN2C(=O)C(=O)c3cc(C)ccc32)cc1` as the molecule, how does the EC50 read?
Answer: The EC50 was 58.6 µM (inactive).

Question: How did the EC50 turn out when `c1ccc(N=Nc2ccc3cccccc2-3)cc1` was run?
Answer: Its EC50 is > 80 µM (inactive).

Question: Which EC50 does the source give for `O=c1cc(C(Cl)(Cl)Cl)oc2c1ccc1ccccc12` here?
Answer: The EC50 was 18.1 µM.

Question: For `CC(C)c1ccc(C2C3=C(COC3=O)Nc3cc4c(cc32)OCO4)cc1` (stereo not drawn), which EC50 is on record?
Answer: The EC50 was 48.9 µM (inactive).

Question: With `CCCCN(CC)S(=O)(=O)c1ccc(C(=O)N=c2sc3cc(NC(C)=O)ccc3n2C)cc1` as the molecule, how does the EC50 read?
Answer: The EC50 was 5.4 µM.

Question: How did the EC50 turn out when `COc1ccc(/C=c2\s/c(=C(/C#N)C(=O)NCc3ccco3)n(-c3ccccc3)c2=O)cc1` was run?
Answer: Its EC50 is > 80 µM (inactive).

Question: `O=C(Nc1cccc(-c2nc3cccnc3s2)c1)C1c2ccccc2Oc2ccccc21` was tested. Which EC50 did it give?
Answer: Its EC50 is 4.67 µM.

Question: Which EC50 does the source give for `CC(=O)Nc1ccccc1Sc1ccc2c3c(cccc13)C(=O)N(c1ccc(C)cc1)C2=O` here?
Answer: The EC50 was > 80 µM (inactive).

Question: `NS(=O)(=O)c1ccc(N/N=C2/CCCCC2C2CCCCC2)c([N+](=O)[O-])c1` (stereo not drawn) was tested. Which EC50 did it give?
Answer: Its EC50 is > 80 µM (inactive).

Question: Which EC50 does the source give for `CCCCCCCC(=O)Nc1ccc(C(=O)N/N=C/c2cccc([N+](=O)[O-])c2)cc1` here?
Answer: Its EC50 is 18.3 µM.

Question: How did the EC50 turn out when `O=C(/C=C\c1cn(-c2ccccc2)nc1-c1ccccc1)Nc1nccs1` was run?
Answer: The EC50 was > 80 µM (inactive).

Question: For `CCN(CC)CCn1c(SCC(=O)Nc2ccc(F)cc2)nc2c(sc3ccccc32)c1=O`, which EC50 is on record?
Answer: Its EC50 is > 80 µM (inactive).

Question: Which EC50 does the source give for `COc1ccc(-c2cc(=O)oc3c(C)c(OC(=O)c4cccs4)ccc23)cc1` here?
Answer: Its EC50 is > 80 µM (inactive).

Question: For `Oc1ccc(-c2nc3ccc4ccccc4c3c3c2CCC3)cc1O`, which EC50 is on record?
Answer: Its EC50 is 28.4 µM (inactive).

Question: `CCc1cc2c(=O)c(-c3cnn(-c4ccccc4)c3)c(C)oc2cc1OCC(=O)Nc1cccc(C)c1` was tested. Which EC50 did it give?
Answer: The EC50 was > 80 µM (inactive).

Question: `CCCNC(=O)c1ccc2c(=O)c(O)c(-c3ccc(OC)cc3)[nH]c2c1` was tested. Which EC50 did it give?
Answer: The EC50 was > 80 µM (inactive).

Question: With `COc1ccc(CCn2c(C3CCCCC3)nc3c(c(=O)c4ccccc4n3C)c2=O)cc1` as the molecule, how does the EC50 read?
Answer: Its EC50 is > 80 µM (inactive).

Question: Which EC50 does the source give for `Cc1ccc2c(c1)C(=O)C(=O)N2Cc1ccc(C(F)(F)F)cc1` here?
Answer: Its EC50 is 27.5 µM (inactive).

Question: With `CCOC(=O)c1nnn2c1nc(Nc1cccc(C(F)(F)F)c1)c1ccccc12` as the molecule, how does the EC50 read?
Answer: Its EC50 is 17.2 µM.

Question: With `COc1cc(-c2ccc3oc(-c4ccsc4)cc3c2)cc(OC)c1OC` as the molecule, how does the EC50 read?
Answer: The EC50 was > 80 µM (inactive).

Question: How did the EC50 turn out when `CN(C)c1ccc(/C=N/NC(=O)c2ccc(NC(=O)c3ccccc3)cc2)cc1` was run?
Answer: Its EC50 is > 80 µM (inactive).

Question: Which EC50 does the source give for `O=C(NCCC1=CCCCC1)C(=O)NCC(c1ccco1)N1CCN(c2ccc(F)cc2)CC1` (stereo not drawn) here?
Answer: Its EC50 is > 80 µM (inactive).

Question: With `CCOC(=O)c1c2ccc(OCC(=O)N/N=C/c3ccc(C)cc3)cc2n2ccccc12` as the molecule, how does the EC50 read?
Answer: The EC50 was > 80 µM (inactive).

Question: For `Cc1cc(C)c(NC(=O)CSc2nc(COc3ccccc3)nc3ccccc23)c(C)c1`, which EC50 is on record?
Answer: The EC50 was > 80 µM (inactive).

Question: How did the EC50 turn out when `CC(C)(C)c1csc(NC(=O)c2ccc(Cl)s2)n1` was run?
Answer: The EC50 was > 80 µM (inactive).

Question: With `CN1C(=O)/C(=C/c2ccc(C(=O)NC3CCCC3)cc2)Oc2ccccc21` as the molecule, how does the EC50 read?
Answer: The EC50 was > 80 µM (inactive).

Question: With `CCCCCCCCCCOC(=O)Cn1c(COc2ccccc2OC)[n+](C)c2ccccc21` as the molecule, how does the EC50 read?
Answer: Its EC50 is 18.1 µM.

Question: Which EC50 does the source give for `O=C(Nc1ccc(-c2nc3cc(NC(=O)c4cccs4)ccc3o2)cc1)c1cccs1` here?
Answer: The EC50 was 4.31 µM.

Question: `Cc1ccc2nsnc2c1NC(=O)c1ccc(-c2cc(Cl)ccc2Cl)o1` was tested. Which EC50 did it give?
Answer: Its EC50 is > 80 µM (inactive).

Question: How did the EC50 turn out when `Oc1ccc(/C=N/Nc2nc(N3CCCC3)nc(N3CCCC3)n2)cc1O` was run?
Answer: The EC50 was > 80 µM (inactive).
